Test results: patent US20250296942A1, “Phosphonate-Based Coordination Complexes and Methods of Preparation and Use Thereof” (University of Puerto Rico, priority 2021, published 2025)

Experiments:
[1] = Release of letrozole from drug-loaded BPBPA-Ca in FaSSGF; type: physicochemical
Experimental: (§1) LET release curve from BPBPA-Ca. The release curve of LET from BPBPA-Ca was determined in FaSSGF. About 100 mL of FaSSGF were placed in a 250-mL beaker and left in constant stirring at 37° C. (150 rpm). To record the first time point (0 h), an aliquot (1 mL) was taken out before adding the drug-loaded BPBPA-Ca. Subsequently, about 20 mg of powdered drug-loaded BPBPA-Ca (experimental) were placed into the FaSSGF solution. After each time point (0, 1, 3, 6, 24, 48, and 72 h), an aliquot (1 mL) was taken out and diluted in a 5 mL volumetric flask. Once the experiment was completed, the absorbance was measured at 238 nm to determine the amount (%) of LET release from the BPBPA-Ca. The release curve of LET (control) in FaSSGF was determined for comparison. This experiment was accomplished in duplicate.
Furthermore, the release of LET from the drug-loaded BPBPA-Ca was investigated in FaSSGF (pH=1.60) at 37° C. The LET released from BPBPA-Ca was quantified by measuring the increase in the LET concentration over time of the supernatant at the lambda max (λmax=238 nm). It was noticed that the drug-loaded BPBPA-Ca reaches a maximum release of LET ([…]) at 24 h (FIG. 91B). […] These findings confirm that BPBPA-Ca can be degraded in acidic conditions and release its cargo (LET) in a controlled and pH-dependent manner.
as §1, with “Release experiment.” for “LET release curve from BPBPA-Ca.”, “performed” for “accomplished”, “duplicate. FIG. 150 depicts the release curve of LET from the BPBPA-Ca channels.” for “duplicate.”

[2] = Hydroxyapatite (HA) affinity/binding assay of 2,2′-BPBPA and nano-Ca@2,2′-BPBPA; settings: for Amount (%) bound to HA, Mean: HA 20 mg, duplicate
Experimental: (§2) Affinity assays experiment. Synthetic HA was employed to explore the affinity of nano-Ca@2,2′-BPBPA to the bone microenvironment. HA (20 mg) was exposed to nano-Ca@2,2′-BPBPA (5 mL, 0.5 mg/mL). The 2,2′-BPBPA (0.5 mg/mL) and HA (20 mg) were used as control groups. All experimental and control groups were left under constant stirring (150 rpm) for 0-12 d. Finally, the supernatant was collected, centrifuged (5 min, 1500 rpm), and the absorbance was measured at λmax=299 nm of maximum absorption (1, 2, 3, 4, 7, 8, 9, 10, 11, 12 d) to determine the amount (%) of 2,2′-BPBPA bound to HA after each period. The experiment was performed in duplicate. Once the experiment was completed, HA, HA-2,2′-BPBPA, and HA-nano-Ca@2,2′-BPBPA were characterized by SEM-EDS and PXRD.
The affinity of nano-Ca@22′-BPBPA to the bone was investigated using hydroxyapatite (HA). The HA is the main constituent of the bone microenvironment; this mineral represents an ideal target when treating bone-related diseases.^45 The binding assay of the nano-Ca@2,2′-BPBPA to HA was performed in PBS at 37° C., the HA as a received reagent was exposed to this nano-BPCCs for 0-12 d. The binding assay for 2,2′-BPBPA to HA was determined as a control experiment. The affinity of these materials to HA was assessed by measuring the absorbance of the supernatant at the lambda max (λmax=299 nm) to quantify the decrease in the 2,2′-BPBPA concentration over time. Binding curves (FIG. 163A) reveal that 2,2′-BPBPA and the nano-Ca@2,2′-BPBPA presented between 32 to 37% binding to HA after 2 d. The ligand reaches about 90% of binding to HA after 7 d while the nano-Ca@2,2′-BPBPA offers a 93% of binding to this mineral after 8 d.
as §2, with “Binding assay with hydroxyapatite (HA).” for “Affinity assays experiment.”, “Experiment” for “The experiment”, “PXRD. Table 35 present the percentage (%) of 2,2′-BPBPA and nano-Ca@2,2′-BPBPA bound to HA in PBS. FIGS. 200-201 show the binding curves for 2,2′-BPBPA and nano-Ca@2,2′-BPBPA.” for “PXRD.”

[3] = as above; settings: 0.5 mg/mL, HA 20 mg, PBS, duplicate

LET released (mean) ([1]; FaSSGF pH 1.60, 37 °C, 1 h) [%]	LET released (mean) ([1]; FaSSGF, 3 h) [%]	LET released (mean) ([1]; FaSSGF, 6 h) [%]	LET released (mean) ([1]; FaSSGF, 24 h) [%]	LET released (mean) ([1]; FaSSGF, 48 h) [%]	LET released (mean) ([1]; FaSSGF, 72 h) [%]	maximum binding to HA ([2]; 0.5 mg/mL) [%]	time to reach maximum binding to HA ([2]; 0.5 mg/mL) [days]	Amount (%) bound to HA, Mean ([2]; 0.5 mg/mL, PBS, 1 d) [%]	Amount (%) bound to HA, Mean ([2]; 0.5 mg/mL, PBS, 2 d) [%]	Amount (%) bound to HA, Mean ([2]; 0.5 mg/mL, PBS, 3 d) [%]	Amount (%) bound to HA, Mean ([2]; 0.5 mg/mL, PBS, 4 d) [%]	Amount (%) bound to HA, Mean ([2]; 0.5 mg/mL, PBS, 7 d) [%]	Amount (%) bound to HA, Mean ([2]; 0.5 mg/mL, PBS, 8 d) [%]	Amount (%) bound to HA, Mean ([2]; 0.5 mg/mL, PBS, 11 d) [%]	Amount (%) bound to HA, Mean ([2]; 0.5 mg/mL, PBS, 12 d) [%]	bound to HA ([2]; PBS, 37 °C, 7 d)	Amount (%) bound to HA, Mean ([3]; 5 d) [%]	Amount (%) bound to HA, Mean ([3]; 6 d) [%]	SMILES
65	72	75	93	94	94	–	–	–	–	–	–	–	–	–	–	–	–	–	N#Cc1ccc(C(c2ccc(C#N)cc2)n2cncn2)cc1 [LET, letrozole]
–	–	–	–	–	–	99	12	18	37	66	71	90	99	99	99	about 90%	82	88	O=P(O)(O)c1ccc(-c2ccc(P(=O)(O)O)cn2)nc1 [2,2′-BPBPA, 2,2′-bipyridine-5,5′-bisphosphonic acid]
